Earlier results on one compound are cited in patent US6579705B2, “Process for preparing non-proteinogenic L-amino acids” (Consortium fur Elektrochemische Industrie GmbH, priority 2001, dated 2003).

For this data set the following is noted: cited from earlier work.

With `CC(=O)OC[C@H](N)C(=O)O` [O-Acetyl-L-serine], the stability toward isomerization result (pH 4.0) is “stable”. Besides, the “rate of isomerization to N-acetyl-L-serine” value (pH 7.6) is given as 1 %×min^−1.
